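GI50 = concentration required for 50% inhibition of growth. Definition used: TGI = concentration required for complete inhibition of growth.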
Experiments:
Test in all cases: DTP human tumour cell line panel, 384-well format
786-0 renal = system: 786-0 renal
A498 renal = system: A498 renal
A549 NSCLC = system: A549 NSCLC
ACHN renal = system: ACHN renal
BT-549 breast = system: BT-549 breast
CAKI-1 renal = system: CAKI-1 renal
CCRF-CEM leukemia = system: CCRF-CEM leukemia
COLO 205 colon = system: COLO 205 colon
DU-145 prostate = system: DU-145 prostate
EKVX NSCLC = system: EKVX NSCLC
HCC-2998 colon = system: HCC-2998 colon
HCT-116 colon = system: HCT-116 colon
HCT-15 colon = system: HCT-15 colon
HL-60(TB) leukemia = system: HL-60(TB) leukemia
HOP-62 NSCLC = system: HOP-62 NSCLC
HOP-92 NSCLC = system: HOP-92 NSCLC
HS 578T breast = system: HS 578T breast
HT29 colon = system: HT29 colon
IGROV1 ovarian = system: IGROV1 ovarian
K-562 leukemia = system: K-562 leukemia
KM12 colon = system: KM12 colon
LOX IMVI melanoma = system: LOX IMVI melanoma
M14 melanoma = system: M14 melanoma
MALME-3M melanoma = system: MALME-3M melanoma
MCF7 breast = system: MCF7 breast
MDA-MB-231 breast = system: MDA-MB-231 breast
MDA-MB-435 melanoma = system: MDA-MB-435 melanoma
MDA-MB-468 breast = system: MDA-MB-468 breast
MOLT-4 leukemia = system: MOLT-4 leukemia
NCI-H226 lung = system: NCI-H226 lung
NCI-H23 lung = system: NCI-H23 lung
NCI-H322M lung = system: NCI-H322M lung
NCI-H460 NSCLC = system: NCI-H460 NSCLC
NCI-H522 lung = system: NCI-H522 lung
NCI/ADR-RES ovarian = system: NCI/ADR-RES ovarian
OVCAR-3 ovarian = system: OVCAR-3 ovarian
OVCAR-4 ovarian = system: OVCAR-4 ovarian
OVCAR-5 ovarian = system: OVCAR-5 ovarian
PC-3 prostate = system: PC-3 prostate
RPMI-8226 leukemia = system: RPMI-8226 leukemia
RXF 393 renal = system: RXF 393 renal
SF-268 CNS = system: SF-268 CNS
SF-295 CNS = system: SF-295 CNS
SF-539 CNS = system: SF-539 CNS
SK-MEL-2 melanoma = system: SK-MEL-2 melanoma
SK-MEL-28 melanoma = system: SK-MEL-28 melanoma
SK-MEL-5 melanoma = system: SK-MEL-5 melanoma
SK-OV-3 ovarian = system: SK-OV-3 ovarian
SN12C renal = system: SN12C renal
SNB-19 CNS = system: SNB-19 CNS
SNB-75 CNS = system: SNB-75 CNS
SR leukemia = system: SR leukemia
SW-620 colon = system: SW-620 colon
T-47D breast = system: T-47D breast
TK-10 renal = system: TK-10 renal
U251 glioblastoma = system: U251 glioblastoma
UACC-257 melanoma = system: UACC-257 melanoma
UACC-62 melanoma = system: UACC-62 melanoma
UO-31 renal = system: UO-31 renal

In the case of `COc1cc(-c2ncn(/C=C\C(=O)OC(C)C)n2)cc(C(F)(F)F)c1`, the GI50 ([…]-0 renal) is reported as 0.0373 µM, the TGI (786-0 renal) is reported as 1.2 µM and the GI50 (A498 renal) is reported as 0.114 µM. For the same compound, the TGI (A498 renal) was 1.25 µM, the GI50 (A549 NSCLC) was 0.0874 µM and the TGI (A549 NSCLC) was 1.36 µM. For the same compound, the GI50 (ACHN renal) was 0.0575 µM, the TGI (ACHN renal) was 1.5 µM and the GI50 (BT-549 breast) was 0.019 µM. For the same compound, the TGI (BT-549 breast) was 0.0465 µM, the GI50 (CAKI-1 renal) was 0.0347 µM and the TGI (CAKI-1 renal) was 3.95 µM. It also gave a GI50 (CCRF-CEM leukemia) of 0.0409 µM, a TGI (CCRF-CEM leukemia) of 0.182 µM and a GI50 (COLO 205 colon) of 0.0482 µM. For the same compound, the TGI (COLO 205 colon) was 1.26 µM, the GI50 (DU-145 prostate) was 0.162 µM and the TGI (DU-145 prostate) was 0.866 µM. The GI50 (EKVX NSCLC) was 0.429 µM, the TGI (EKVX NSCLC) was 6.09 µM and the GI50 (HCC-2998 colon) was 0.0892 µM. For the same compound, the TGI (HCC-2998 colon) was 0.838 µM, the GI50 (HCT-116 colon) was 0.085 µM and the TGI (HCT-116 colon) was 0.311 µM. The GI50 (HCT-15 colon) was 0.0458 µM, the TGI (HCT-15 colon) was 1.04 µM and the GI50 (HL-60(TB) leukemia) was 0.0237 µM. For the same compound, the TGI (HL-60(TB) leukemia) was 0.118 µM, the GI50 (HOP-62 NSCLC) was 0.291 µM and the TGI (HOP-62 NSCLC) was 1.53 µM. For the same compound, the GI50 (HOP-92 NSCLC) was 0.0695 µM, the TGI (HOP-92 NSCLC) was 1.55 µM and the GI50 (HS 578T breast) was 0.0681 µM. For the same compound, the TGI (HS 578T breast) was 0.461 µM, the GI50 (HT29 colon) was 0.0743 µM and the TGI (HT29 colon) was 1.12 µM. For the same compound, the GI50 (IGROV1 ovarian) was 0.0928 µM, the TGI (IGROV1 ovarian) was 2.09 µM and the GI50 (K-562 leukemia) was 0.0304 µM. It also gave a TGI (K-562 leukemia) of 0.177 µM, a GI50 (KM12 colon) of 0.217 µM and a TGI (KM12 colon) of 1.15 µM. For the same compound, the GI50 (LOX IMVI melanoma) was 0.198 µM, the TGI (LOX IMVI melanoma) was 0.826 µM and the GI50 (M14 melanoma) was 0.123 µM. For the same compound, the TGI (M14 melanoma) was 0.382 µM, the GI50 (MALME-3M melanoma) was 0.171 µM and the TGI (MALME-3M melanoma) was 0.609 µM. For the same compound, the GI50 (MCF7 breast) was 0.0659 µM, the TGI (MCF7 breast) was 0.982 µM and the GI50 (MDA-MB-231 breast) was 0.0514 µM. For the same compound, the TGI (MDA-MB-231 breast) was 0.663 µM, the GI50 (MDA-MB-435 melanoma) was 0.0433 µM and the TGI (MDA-MB-435 melanoma) was 0.21 µM. The GI50 (MDA-MB-468 breast) was 0.15 µM, the TGI (MDA-MB-468 breast) was 0.336 µM and the GI50 (MOLT-4 leukemia) was 0.0126 µM. For the same compound, the TGI (MOLT-4 leukemia) was 0.0259 µM, the GI50 (NCI-H226 lung) was 0.0208 µM and the TGI (NCI-H226 lung) was 0.483 µM. The GI50 (NCI-H23 lung) was 0.0564 µM, the TGI (NCI-H23 lung) was 1.14 µM and the GI50 (NCI-H322M lung) was 0.295 µM. For the same compound, the TGI (NCI-H322M lung) was 2.53 µM, the GI50 (NCI-H460 NSCLC) was 0.0296 µM and the TGI (NCI-H460 NSCLC) was 0.163 µM. For the same compound, the TGI (NCI-H522 lung) was 0.0926 µM, the GI50 (NCI/ADR-RES ovarian) was 0.0549 µM and the TGI (NCI/ADR-RES ovarian) was 1.27 µM. For the same compound, the GI50 (OVCAR-3 ovarian) was 0.0264 µM, the TGI (OVCAR-3 ovarian) was 0.151 µM and the GI50 (OVCAR-4 ovarian) was 0.244 µM. It also gave a TGI (OVCAR-4 ovarian) of 2.04 µM, a GI50 (OVCAR-5 ovarian) of 0.117 µM and a TGI (OVCAR-5 ovarian) of 10 µM. The GI50 (PC-3 prostate) was 0.0374 µM, the TGI (PC-3 prostate) was 0.232 µM and the GI50 (RPMI-8226 leukemia) was 0.0136 µM. It also gave a TGI (RPMI-8226 leukemia) of 0.0325 µM, a GI50 (RXF 393 renal) of 0.0166 µM and a TGI (RXF 393 renal) of 0.0687 µM. The GI50 (SF-268 CNS) was 0.0299 µM, the TGI (SF-268 CNS) was 0.0888 µM and the GI50 (SF-295 CNS) was 0.214 µM. For the same compound, the TGI (SF-295 CNS) was 2.3 µM, the GI50 (SF-539 CNS) was 0.0205 µM and the TGI (SF-539 CNS) was 0.0712 µM. It also gave a GI50 (SK-MEL-2 melanoma) of 0.0443 µM, a TGI (SK-MEL-2 melanoma) of 0.0695 µM and a GI50 (SK-MEL-28 melanoma) of 0.222 µM. It also gave a TGI (SK-MEL-28 melanoma) of 1.61 µM, a GI50 (SK-MEL-5 melanoma) of 0.137 µM and a TGI (SK-MEL-5 melanoma) of 0.601 µM. For the same compound, the GI50 (SK-OV-3 ovarian) was 2.34 µM, the TGI (SK-OV-3 ovarian) was 14.3 µM and the GI50 (SN12C renal) was 0.283 µM. For the same compound, the TGI (SN12C renal) was 1.77 µM, the GI50 (SNB-19 CNS) was 0.444 µM and the TGI (SNB-19 CNS) was 3.15 µM. The GI50 (SNB-75 CNS) was 0.0919 µM, the TGI (SNB-75 CNS) was 0.311 µM and the GI50 (SR leukemia) was 0.011 µM. The TGI (SR leukemia) was 0.0237 µM, the GI50 (SW-620 colon) was 0.0561 µM and the TGI (SW-620 colon) was 1.25 µM. For the same compound, the GI50 (T-47D breast) was 0.229 µM, the TGI (T-47D breast) was 3.73 µM and the GI50 (TK-10 renal) was 0.0379 µM. The TGI (TK-10 renal) was 1.2 µM, the GI50 (U251 glioblastoma) was 0.0392 µM and the TGI (U251 glioblastoma) was 0.275 µM. The GI50 (UACC-257 melanoma) was 0.552 µM, the TGI (UACC-257 melanoma) was 4.6 µM and the GI50 (UACC-62 melanoma) was 0.0424 µM. The TGI (UACC-62 melanoma) was 0.179 µM, the GI50 (UO-31 renal) was 0.166 µM and the TGI (UO-31 renal) was 1.58 µM.
